Converted amounts (≈) assume the structure as drawn. “And” between values parts separate entries of the source, which are not always exact repeats. Identical values can stand only once. One block for each compound: values may come before it.
How the values were obtained:
Test in all cases: ≥ marks a high value that may be exact or a test limit, other limits are often not marked, values filed in µg/mL are converted to µM
[1] = system: Staphylococcus aureus ATCC 43300
[2] = system: Pseudomonas aeruginosa ATCC 27853
[3] = system: Staphylococcus aureus ATCC 29213
[4] = system: Candida albicans ATCC 90028
[5] = system: Escherichia coli ATCC 25922
[6] = system: Staphylococcus epidermidis ATCC 12228
Pseudomonas aeruginosa = system: Pseudomonas aeruginosa
Escherichia coli = system: Escherichia coli
Staphylococcus aureus = system: Staphylococcus aureus
[7] = system: Pseudomonas aeruginosa PAO1
Escherichia coli UB1005 = system: Escherichia coli UB1005
[8] = system: Staphylococcus aureus ATCC 25923

MIC [1]: 16 µM (≈ 26.2 µg/mL)
Compound: CC(C)C[C@H](NC(=O)[C@H](CCCCN)NC(=O)[C@H](C)N)C(=O)N[C@@H](Cc1c[nH]c2ccccc12)C(=O)N[C@@H](CC(C)C)C(=O)N[C@@H](CCCCN)C(=O)N[C@@H](C)C(=O)N[C@@H](C)C(=O)N[C@@H](CCCCN)C(=O)N[C@@H](CC(C)C)C(=O)N[C@@H](Cc1c[nH]c2ccccc12)C(=O)N[C@@H](CC(C)C)C(=O)N[C@@H](CCCCN)C(=O)N[C@@H](C)C(N)=O [AKLWLKAAKLWLKA]

MIC [2]: 40 µM (≈ 60.6 µg/mL) | MIC [3]: 40 µM (≈ 60.6 µg/mL) | MIC [4]: ≥ 40 µM | MIC [5]: 40 µM (≈ 60.6 µg/mL)
Compound: CC[C@H](C)[C@H](NC(=O)[C@H](CCCN=C(N)N)NC(=O)[C@H](CCC(N)=O)NC(=O)[C@@H](NC(=O)[C@@H](NC(=O)[C@H](CCCN=C(N)N)NC(=O)[C@H](C)N)[C@@H](C)CC)C(C)C)C(=O)N[C@@H](CCCCN)C(=O)N[C@@H](CC(=O)O)C(=O)N[C@@H](Cc1ccccc1)C(=O)N[C@@H](CC(C)C)C(=O)N[C@@H](CCCN=C(N)N)C(=O)O [ARIVQRIKDFLR]

MIC (Pseudomonas aeruginosa): 86.6 µM (≈ 152 µg/mL) | MIC (Escherichia coli): 7.5 µM and 6.25 µM and 3.12 µM | MIC (Staphylococcus aureus): 11.8 µM (≈ 20.7 µg/mL)
Compound: CC[C@H](C)[C@H](N)C(=O)N[C@@H](CC(N)=O)C(=O)N[C@@H](Cc1c[nH]c2ccccc12)C(=O)N[C@@H](CCCCN)C(=O)N[C@@H](CCCCN)C(=O)N[C@H](C(=O)N[C@@H](Cc1ccccc1)C(=O)N[C@@H](CCC(=O)O)C(=O)N[C@@H](CCCCN)C(=O)N[C@H](C(=O)N[C@@H](CCCCN)C(=O)N[C@@H](CC(N)=O)C(=O)N[C@@H](CC(C)C)C(=O)N[C@H](C(N)=O)C(C)C)C(C)C)[C@@H](C)CC [INWKKIFEKVKNLV]

MIC [2]: 16 µM (≈ 34.2 µg/mL) | MIC [3]: 8 µM (≈ 17.1 µg/mL) | MIC [6]: 4 µM (≈ 8.55 µg/mL) | MIC [5]: 16 µM (≈ 34.2 µg/mL)
Compound: CC[C@H](C)[C@H](N)C(=O)N[C@@H](Cc1c[nH]c2ccccc12)C(=O)N[C@@H](CCCN=C(N)N)C(=O)N[C@H](C(=O)N[C@@H](Cc1ccccc1)C(=O)N[C@@H](CCCN=C(N)N)C(=O)N[C@@H](CCCN=C(N)N)C(=O)N[C@H](C(=O)N[C@@H](Cc1ccccc1)C(=O)N[C@@H](CCCN=C(N)N)C(=O)N[C@H](C(=O)N[C@@H](Cc1ccccc1)C(=O)N[C@H](C(=O)N[C@@H](CCCN=C(N)N)C(=O)N[C@@H](Cc1ccccc1)C(N)=O)[C@@H](C)CC)[C@@H](C)CC)[C@@H](C)CC)[C@@H](C)CC [IWRIFRRIFRIFIRF]

MIC [2]: 40 µM (≈ 59.5 µg/mL) | MIC [3]: 40 µM (≈ 59.5 µg/mL) | MIC [4]: ≥ 40 µM | MIC [5]: 40 µM (≈ 59.5 µg/mL)
Compound: CC[C@H](C)[C@H](NC(=O)[C@H](C)NC(=O)[C@H](CCC(N)=O)NC(=O)[C@@H](NC(=O)[C@@H](NC(=O)[C@H](CCCN=C(N)N)NC(=O)[C@@H](N)CCCCN)[C@@H](C)CC)C(C)C)C(=O)N[C@@H](CCCCN)C(=O)N[C@@H](CC(=O)O)C(=O)N[C@@H](Cc1ccccc1)C(=O)N[C@@H](CC(C)C)C(=O)N[C@@H](CCCN=C(N)N)C(=O)O [KRIVQAIKDFLR]

MIC [7]: 52.1 µM (≈ 128 µg/mL) | MIC (Escherichia coli UB1005): 2.04 µM (≈ 5 µg/mL) | MIC [8]: 13 µM (≈ 32 µg/mL)
Compound: CC[C@H](C)[C@H](NC(=O)[C@H](CCCN=C(N)N)NC(=O)[C@H](CCCN=C(N)N)NC(=O)[C@@H]1CCCN1C(=O)[C@H](Cc1ccc(O)cc1)NC(=O)[C@H](CCCN=C(N)N)NC(=O)[C@@H]1CCCN1C(=O)[C@H](CCCN=C(N)N)NC(=O)[C@@H]1CCCN1C(=O)[C@H](CC(C)C)NC(=O)[C@H](Cc1ccc(O)cc1)NC(=O)[C@@H]1CCCN1C(=O)[C@@H]1CCCN1C(=O)[C@H](CCCCN)NC(=O)[C@H](CC(=O)O)NC(=O)[C@@H](N)C(C)C)C(=O)N[C@@H](Cc1ccc(O)cc1)C(=O)N[C@@H](CC(N)=O)C(=O)N[C@@H](CCCN=C(N)N)C(N)=O [VDKPPYLPRPRYPRRIYNR]

Continued, compound first:

Compound: CC(C)C[C@H](NC(=O)[C@H](Cc1ccc(O)cc1)NC(=O)[C@H](Cc1ccc(O)cc1)NC(=O)CNC(=O)[C@H](Cc1c[nH]c2ccccc12)NC(=O)[C@H](CO)NC(=O)[C@H](CO)NC(=O)[C@H](Cc1c[nH]c2ccccc12)NC(=O)[C@H](CC(C)C)NC(=O)[C@H](CCCCN)NC(=O)[C@@H](NC(=O)[C@@H](NC(=O)[C@H](CC(C)C)NC(=O)[C@@H](N)CC(=O)O)[C@@H](C)O)[C@@H](C)O)C(=O)NCC(=O)O [DLTTKLWSSWGYYLG]
MIC [6]: 25 µM (≈ 44.8 µg/mL)

Compound: CC(C)C[C@H](NC(=O)[C@H](CCCCN)NC(=O)CN)C(=O)N[C@@H](Cc1c[nH]c2ccccc12)C(=O)N[C@@H](CC(C)C)C(=O)N[C@@H](CCCCN)C(=O)NCC(=O)NCC(=O)N[C@@H](CCCCN)C(=O)N[C@@H](CC(C)C)C(=O)N[C@@H](Cc1c[nH]c2ccccc12)C(=O)N[C@@H](CC(C)C)C(=O)N[C@@H](CCCCN)C(=O)NCC(=O)NCC(=O)N[C@@H](CCCCN)C(=O)N[C@@H](CC(C)C)C(=O)N[C@@H](Cc1c[nH]c2ccccc12)C(=O)N[C@@H](CC(C)C)C(=O)N[C@@H](CCCCN)C(=O)NCC(N)=O [GKLWLKGGKLWLKGGKLWLKG]
MIC [1]: 32 µM (≈ 75.7 µg/mL)

Compound: CC(C)C[C@H](NC(=O)[C@H](CC(C)C)NC(=O)[C@H](C)NC(=O)[C@H](CCCCN)NC(=O)[C@H](C)NC(=O)[C@H](C)NC(=O)[C@H](C)NC(=O)[C@H](CC(C)C)NC(=O)[C@H](Cc1c[nH]c2ccccc12)NC(=O)[C@H](CCCCN)NC(=O)[C@H](C)NC(=O)[C@H](CC(C)C)NC(=O)[C@H](CC(C)C)NC(=O)[C@H](CCCCN)NC(=O)[C@H](CCCCN)NC(=O)[C@H](CC(C)C)NC(=O)[C@H](C)NC(=O)[C@@H](N)CCCCN)C(N)=O [KALKKLLAKWLAAAKALL]
MIC (Pseudomonas aeruginosa): 12.2 µM (≈ 23.8 µg/mL) | MIC (Escherichia coli): 6.1 µM (≈ 11.9 µg/mL) | MIC (Staphylococcus aureus): 1.5 µM (≈ 2.92 µg/mL)

Compound: CC(C)C[C@H](NC(=O)[C@H](C)NC(=O)[C@H](CC(C)C)NC(=O)[C@@H](N)CCCCN)C(=O)N[C@@H](CCCCN)C(=O)N[C@@H](C)C(=O)N[C@@H](C)C(=O)N[C@@H](CC(C)C)C(=O)N[C@@H](CCCCN)C(=O)N[C@@H](C)C(=O)N[C@@H](Cc1c[nH]c2ccccc12)C(=O)N[C@@H](CCCCN)C(=O)N[C@@H](C)C(=O)N[C@@H](C)C(=O)N[C@@H](C)C(=O)N[C@@H](CCCCN)C(=O)N[C@@H](CC(C)C)C(=O)N[C@@H](C)C(N)=O [KLALKAALKAWKAAAKLA]
MIC (Pseudomonas aeruginosa): 45 µM (≈ 83.9 µg/mL) | MIC (Escherichia coli): 7.78 µM (≈ 14.5 µg/mL) | MIC (Staphylococcus aureus): 45 µM (≈ 83.9 µg/mL)

Compound: CC[C@H](C)[C@H](NC(=O)[C@H](Cc1c[nH]c2ccccc12)NC(=O)[C@H](CCCCN)NC(=O)[C@@H](NC(=O)[C@H](CC(C)C)NC(=O)[C@H](CCCCN)NC(=O)CNC(=O)[C@@H](NC(=O)[C@@H](NC(=O)[C@H](CO)NC(=O)[C@@H](NC(=O)[C@@H](NC(=O)[C@H](CCCCN)NC(=O)[C@H](CCC(N)=O)NC(=O)[C@H](C)NC(=O)[C@@H](N)CCSC)[C@@H](C)CC)[C@@H](C)CC)[C@@H](C)O)[C@@H](C)CC)C(C)C)C(=O)N[C@H](C(=O)N[C@@H](CCCCN)C(=O)N[C@H](C(=O)N[C@H](C(=O)N[C@@H](CC(N)=O)C(=O)N[C@@H](CCCCN)C(=O)N[C@@H](Cc1ccccc1)C(=O)N[C@H](C(=O)N[C@@H](CCCCN)C(=O)N[C@@H](CCCCN)C(=O)O)[C@@H](C)O)C(C)C)[C@@H](C)O)[C@@H](C)CC [MAQKIISTIGKLVKWIIKTVNKFTKK]
MIC (Escherichia coli): 3.8 µM (≈ 11.5 µg/mL) | MIC (Staphylococcus aureus): 20 µM (≈ 60.4 µg/mL)

Compound: CC[C@H](C)[C@H](NC(=O)[C@H](CCCN=C(N)N)NC(=O)[C@H](CCCN=C(N)N)NC(=O)[C@@H]1CCCN1C(=O)[C@H](CCCN=C(N)N)NC(=O)[C@H](CCCN=C(N)N)NC(=O)[C@@H]1CCCN1C(=O)[C@H](CCCN=C(N)N)NC(=O)[C@@H]1CCCN1C(=O)[C@H](CC(C)C)NC(=O)[C@H](Cc1ccc(O)cc1)NC(=O)[C@@H]1CCCN1C(=O)[C@@H]1CCCN1C(=O)[C@H](CCCCN)NC(=O)[C@H](CC(=O)O)NC(=O)[C@@H](N)C(C)C)C(=O)N[C@@H](Cc1ccc(O)cc1)C(=O)N[C@@H](CC(N)=O)C(=O)N[C@@H](CCCN=C(N)N)C(N)=O [VDKPPYLPRPRRPRRIYNR]
MIC [7]: 52.2 µM (≈ 128 µg/mL) | MIC (Escherichia coli UB1005): 1.02 µM (≈ 2.5 µg/mL) | MIC [8]: 13.1 µM (≈ 32 µg/mL)

Source: DBAASP
